In PubChem BioAssay (NCI):
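Test compounds were applied to cells in 96-well plates for 48 hours at 5 doses. TGI: concentration producing complete growth inhibition.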

Experiments:
Assay in all cases: NCI-60 cell line screen, 48 h
MALME-3M melanoma = system: MALME-3M melanoma
HOP-92 NSCLC = system: HOP-92 NSCLC
K-562 leukemia = system: K-562 leukemia
SF-268 CNS = system: SF-268 CNS
ACHN renal = system: ACHN renal
SW-620 colon = system: SW-620 colon
CCRF-CEM leukemia = system: CCRF-CEM leukemia
LOX IMVI melanoma = system: LOX IMVI melanoma
SF-295 CNS = system: SF-295 CNS
NCI-H522 lung = system: NCI-H522 lung
NCI-H23 lung = system: NCI-H23 lung
SNB-75 CNS = system: SNB-75 CNS
SK-OV-3 ovarian = system: SK-OV-3 ovarian
KM12 colon = system: KM12 colon
HL-60(TB) leukemia = system: HL-60(TB) leukemia
SF-539 CNS = system: SF-539 CNS
OVCAR-3 ovarian = system: OVCAR-3 ovarian
SNB-78 CNS = system: SNB-78 CNS
UO-31 renal = system: UO-31 renal
OVCAR-5 ovarian = system: OVCAR-5 ovarian

Row | SMILES | TGI (MALME-3M melanoma) [µM] | TGI (HOP-92 NSCLC) [µM] | TGI (K-562 leukemia) [µM] | TGI (SF-268 CNS) [µM] | TGI (ACHN renal) [µM] | TGI (SW-620 colon) [µM] | TGI (CCRF-CEM leukemia) [µM] | TGI (LOX IMVI melanoma) [µM] | TGI (SF-295 CNS) [µM] | TGI (NCI-H522 lung) [µM] | TGI (NCI-H23 lung) [µM] | TGI (SNB-75 CNS) [µM] | TGI (SK-OV-3 ovarian) [µM] | TGI (KM12 colon) [µM] | TGI (HL-60(TB) leukemia) [µM] | TGI (SF-539 CNS) [µM] | TGI (OVCAR-3 ovarian) [µM] | TGI (SNB-78 CNS) [µM] | TGI (UO-31 renal) [µM] | TGI (OVCAR-5 ovarian) [µM]
1 | COc1cc2c3c(c4cc(OC)c(OC)cc4c2cc1OC)C(=O)C1CCC(=O)N1C3 (centres undefined) | 83 | 82.2 | > 100 | > 100 | 59.7 | > 100 | 30.8 | > 100 | > 100 | 23.3 | > 100 | 32.2 | 61.1 | > 100 | > 100 | 39.8 | > 100 | – | – | –
2 | O=C(CC(=O)c1ccccc1)CC(O)(c1ccccc1)c1ccccc1 | 25.4 | 19.5 | 33.4 | 24.6 | 24.5 | 18.1 | 26 | – | 17.1 | 13.6 | 18.8 | 27.5 | 76 | 21.9 | 6.54 | – | 17.3 | 81 | 18.4 | 25.6
3 | COC(=O)CN(C)P(=O)(N1CC1)N1CC1 | > 100 | – | > 100 | > 100 | > 100 | > 100 | > 100 | > 100 | > 100 | > 100 | > 100 | > 100 | > 100 | > 100 | > 100 | > 100 | – | > 100 | > 100 | > 100
4 | CC(=O)OC1(C#N)CC2OC1C1C2N=NN1C(=O)OC(C)(C)C (centres undefined) | 48.3 | 75.3 | > 100 | > 100 | > 100 | > 100 | > 100 | 69.4 | – | > 100 | 77.7 | > 100 | – | – | – | 52.7 | > 100 | 73.2 | > 100 | > 100
